# Experimental data: patent publication US12578273B2, “Ph-reversible leuco-BODIPY probe for in situ visualization of extracellular vesicles and their secretion from living cells” (The Chinese University of Hong Kong, priority 2021, dated 2026)
# How the values were obtained:
# Type in all cases: cell-based
# [1] = system: EVs secreted by HEK293 cells; experiment: Estimation of the fluorescence signal per EV; conditions: 5 μM leuco-BODIPY, 30 min, excitation 584 nm, emission 612 nm, net fluorescence divided by number of EVs (NTA)
# Method: (§1) Cells were pre-seeded in a 96-well plate in complete DMEM without phenol red. During the experiment, 200 μL of either fresh complete DMEM without phenol red or 5 μM leuco-BODIPY formulated in fresh complete DMEM without phenol red was added to the cells. After 30 min, the medium was collected and centrifuged for 10 min at 200×g to remove any dye-stained cell debris. The fluorescence signal in the medium was measured by a fluorescent plate reader (ThermoFisher Fluoroskan Ascent) at an excitation wavelength of 584 nm and emission wavelength of 612 nm. The net fluorescence in the dye-treated EV sample was determined by subtracting the background fluorescence of the untreated EV sample from the fluorescence of the dye-treated EV sample. Complete DMEM without phenol red was also used as a control to determine the background fluorescence of the blank culture medium. After the microplate reader experiment, each EV sample was made up to a total of 1 mL by adding DMEM without phenol red, followed by injection into a Malvern Nanosight NS500 instrument for measuring the total number of EVs in the sample. […] The fluorescence signal per EV was estimated by dividing (1) the net fluorescence (with background subtraction) of the EV sample as measured by the microplate reader by (2) the number of EVs in the sample as measured by NTA.
# (§2) Moreover, we incubated the three cell types with our probe for 30 min, isolated the EVs secreted to the culture medium, centrifuged the collected medium to remove any dye-stained cell fragments, and confirmed the detection of fluorescence in the isolated EVs (Table 1). By contrast, for the EVs isolated from the same cell types under the same culture conditions but without treatment by our probe, the fluorescence detected was at the background level of blank culture medium.
# (§3) Table 1: Estimate of the number of signals per EV. The fluorescence signal per EV is expressed in arbitrary units (a.u.), a relative value that highly depends on pH, dye concentration, and laser power. […]
# [2] = system: EVs secreted by HeLa cells; experiment: Estimation of the fluorescence signal per EV; conditions: 5 μM leuco-BODIPY, 30 min, excitation 584 nm, emission 612 nm, net fluorescence divided by number of EVs (NTA)
# Method: as §1, §2, §3
# [3] = system: A549 cells that express GFP-tagged CD81; experiment: Confocal imaging of EVs or precursor EVs (colocalization of BODIPY with GFP-tagged CD81); conditions: 30 min
# Method: (§4) Pre-seeded in 35-mm confocal dishes (SPL Life Sciences, Pocheon, South Korea), cells were grown to the desired confluence before transfection. The transfection medium, formulated in 1 mL of OptiMEM (Gibco, Waltham, MA), contains 7.5 μL of Lipofectamine 3000 (Invitrogen) and either 2.5 μg/mL GFP-CD81 or EGFP-tubulin-6 plasmids. After incubating the cells with the transfection medium for 4 h, the cells were switched to 2 mL of plasmid-free complete DMEM for 2 d. After that, the transfected cells were incubated with leuco-BODIPY for further confocal imaging.
# (§5) Confocal imaging of EVs or precursor EVs To prepare the stock of the probe for our cell-based experiments, BODIPY was pre-dissolved in 100% DMSO (2 mM). After dissolution, the probe predominantly assumes the leuco-BODIPY form, as evidenced by its light-yellow color. Cells that express marker proteins of interest (i.e., GFP-tagged CD81 or EGFP-tagged tubulin-6) were pre-seeded in 35-mm confocal dishes. After removing the culture medium, the transfected cells were incubated with 1 mL of 2 μM leuco-BODIPY [dissolved in phenol red-free DMEM (Gibco) with […] (Invitrogen) for solubilization] for 30 min. The EVs in the medium or precursor EVs inside cells were imaged under a Leica SP8 confocal microscope with a 63× objective. The excitation wavelengths of the GFP-tagged proteins and BODIPY were 488 nm and 575 nm, respectively. The emission wavelengths of the GFP-tagged proteins and BODIPY were 495-525 nm and 585-710 nm, respectively. All images were taken at the same laser settings.
# (§6) Then, we seeded HeLa, A549, or HEK293 cells that express GFP-tagged CD81 in a confocal dish and incubated the cells with phenol red-free medium containing 2 μM leuco-BODIPY and 0.1% DMSO for 30 min. Note that this probe is predominantly in its leuco-BODIPY form when dissolved in DMSO, as evidenced by its light-yellow color. We obtained confocal images of the cell-seeded medium without harvesting the EVs or rinsing the cells (FIGS. 2A, 30-31). Representative images of their extracellular space depict granular or spherical pockets of fluorescence from BODIPY (red) amidst a dark background. […] The fluorescent pockets of BODIPY are submicron-sized or micron-sized, larger than the reported sizes of exosomes (50-200 nm).^36 As the resolution limit of confocal microscopy may overestimate the size of EVs, we isolated EVs from the cell-seeded medium for nanoparticle tracking analysis (NTA; FIG. 2B). The hydrodynamic size distribution of the EVs lies between about 50 nm and about 400 nm, with peak EV diameters of 151 nm, 104 nm, and 156 nm for HeLa, A549, and HEK293 cells, respectively. As these peak EV sizes corroborate the typical sizes of exosomes, we conclude that the EVs detected are mostly exosomes, with a smaller portion of larger ectosomes, clustered exosomes, or extracellular MVBs (FIGS. 4A-4C).
# (§7) Next, we attempted to use our probe for imaging intracellular precursor EVs before their secretion to the extracellular milieu. Again, we added leuco-BODIPY (dissolved in DMSO) to culture medium seeded with HeLa, A549, or HEK293 cells that express GFP-tagged CD81 for 30 min (FIG. 3). […] Contrarily, the overlap between BODIPY and GFP-CD81 fluorescence in the cytoplasm is moderate, characterized by Pearson's colocalization coefficients of 0.72, 0.66, and 0.63 for HeLa, A549, and HEK293 cells, respectively. As a negative control, we captured confocal images of the three cell lines but without adding leuco-BODIPY to the medium.
# [4] = system: HEK293 cells that express GFP-tagged CD81; experiment: as above; conditions: 30 min
# Method: as §4, §5, §6, §7
# [5] = system: HeLa cells that express GFP-tagged CD81; experiment: as above; conditions: 30 min
# Method: as §4, §5, §6, §7
# [6] = extracellular space (CD81-enriched exosomes), 2 μM, no rinsing
smiles,measurement,setting,value
CCOC(=O)C(=Cc1ccc2n1[B-](F)(F)n1c(C=C(C(=O)OCC)C(=O)OCC)ccc1C2(OC)c1ccncc1)C(=O)OCC [leuco-BODIPY],Mean fluorescence signal per EV,[1],1.67 × 10^−6 a.u.
same,Mean fluorescence signal per EV,[2],4.63 × 10^−7 a.u.
same,Pearson's colocalization coefficient between BODIPY and CD81-GFP fluorescence,[3]; [6],0.85
same,Pearson's colocalization coefficient between BODIPY and GFP-CD81 fluorescence,[3]; in the cytoplasm,0.66
same,Pearson's colocalization coefficient between BODIPY and GFP-CD81 fluorescence,[3]; on the pseudopodia,0.90
same,Pearson's colocalization coefficient between BODIPY and CD81-GFP fluorescence,[4]; [6],0.94
same,Pearson's colocalization coefficient between BODIPY and GFP-CD81 fluorescence,[4]; in the cytoplasm,0.63
same,Pearson's colocalization coefficient between BODIPY and GFP-CD81 fluorescence,[4]; on the pseudopodia,0.86
same,Pearson's colocalization coefficient between BODIPY and CD81-GFP fluorescence,[5]; [6],0.92
same,Pearson's colocalization coefficient between BODIPY and GFP-CD81 fluorescence,[5]; in the cytoplasm,0.72
same,Pearson's colocalization coefficient between BODIPY and GFP-CD81 fluorescence,[5]; on the pseudopodia,0.94
